# From patent US20100099561A1, “HETEROBICYCLIC ALKYLTHIO-BRIDGED ISOXAZOLINES” (E.I. DU PONT DE NEMOURS AND COMPANY, priority 2008, published 2010)
# Assays:
# Format in all cases: in vivo
# [1] = test system: wheat (Triticum aestivum); experiment: Test A preemergence, wheat; conditions: 0 to 100 scale (0 no effect, 100 complete control)
# Method in brief: (§1)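 Visual injury scored 0 (no effect) to 100 (complete control) against untreated plants roughly ten days after greenhouse treatment. Postemergence sprays hit one- to two-leaf plants 2–10 cm high; preemergence was a directed spray onto loam–sand soil, both using surfactant-containing solvent formulations.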
# [2] = test system: velvetleaf (Abutilon theophrasti); experiment: Test A preemergence, velvetleaf; conditions: 0 to 100 scale (0 no effect, 100 complete control)
# Method in brief: as §1
# [3] = test system: goosegrass (Eleusine indica); experiment: Test B preemergence, goosegrass; conditions: scale 0 to 100
# From the text: (§2) Seeds of plant species selected from blackgrass (Alopecurus myosuroides), downy bromegrass (Bromus tectorum), green foxtail (Setaria viridis), Italian ryegrass (Lolium multiflorum), wheat (Triticum aestivum), wild oat (Avena fatua), catchweed bedstraw (Galium aparine), bermudagrass (Cynodon dactylon), Surinam grass (Brachiaria decumbens), cocklebur (Xanthium strumarium), corn (Zea mays), large crabgrass (Digitaria sanguinalis), woolly cupgrass (Eriochloa villosa), giant foxtail (Setaria faberii), goosegrass (Eleusine indica), johnsongrass (Sorghum halepense), kochia (Kochia scoparia), lambsquarters (Chenopodium album), morningglory (Ipomoea coccinea), nightshade (eastern black nightshade, Solanum ptycanthum), yellow nutsedge (Cyperus esculentus), pigweed (Amaranthus retroflexus), ragweed (common ragweed, Ambrosia elatior), soybean (Glycine max), sunflower (common oilseed sunflower, Helianthus annuus), Russian thistle (Salsola kali), and velvetleaf (Abutilon theophrasti) were planted into a blend of loam soil and sand and treated preemergence with test compounds formulated in a non-phytotoxic solvent mixture which included a surfactant. Treated plants and controls were maintained in a greenhouse for 13 to 15 days, after which time all species were compared to controls and visually evaluated. Plant response ratings, summarized in Table B, are based on a scale of 0 to 100 where 0 is no effect and 100 is complete control. A dash (-) response means no test result.
# [4] = test system: rice (Oryza sativa); experiment: Test B flooded paddy test, rice; conditions: Flood, scale 0 to 100
# Method in brief: (§3)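 Compounds were added directly to paddy water over 2-leaf-stage plants in pots flooded 3 cm above soil, water depth maintained. Visual injury scored against controls after 13 to 15 days in greenhouse, 0 (none) to 100 (complete control); dash indicates no result.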
# [5] = test system: barnyardgrass (Echinochloa crus-galli); experiment: Test B flooded paddy test, barnyardgrass; conditions: Flood
# Method in brief: as §3
# [6] = test system: sunflower (common oilseed sunflower, Helianthus annuus); experiment: Test B preemergence, sunflower; conditions: Preemergence, scale 0 to 100
# From the text: as §2
# [7] = test system: lambsquarters (Chenopodium album); experiment: Test B preemergence, lambsquarters; conditions: scale 0 to 100
# From the text: as §2
# [8] = test system: pigweed (Amaranthus retroflexus); experiment: Test A preemergence, pigweed; conditions: 500 g ai/ha, 0 to 100 scale (0 no effect, 100 complete control)
# Method in brief: as §1
# [9] = test system: wheat (Triticum aestivum); experiment: Test B preemergence, wheat; conditions: Preemergence, scale 0 to 100
# From the text: as §2
# [10] = test system: blackgrass (Alopecurus myosuroides); experiment: Test B preemergence, blackgrass; conditions: scale 0 to 100
# From the text: as §2
# [11] = test system: pigweed (Amaranthus retroflexus); experiment: Test B preemergence, pigweed; conditions: scale 0 to 100
# From the text: as §2
# [12] = test system: corn (Zea mays); experiment: Test A postemergence, corn; conditions: 0 to 100 scale (0 no effect, 100 complete control)
# Method in brief: as §1
# [13] = test system: cocklebur (Xanthium strumarium); experiment: Test B preemergence, cocklebur; conditions: scale 0 to 100
# From the text: as §2
# [14] = test system: large crabgrass (Digitaria sanguinalis); experiment: Test A postemergence, large crabgrass; conditions: 0 to 100 scale (0 no effect, 100 complete control)
# Method in brief: as §1
# [15] = test system: umbrella sedge (Cyperus difformis); experiment: Test B flooded paddy test, umbrella sedge; conditions: Flood, scale 0 to 100
# Method in brief: as §3
# [16] = test system: wheat (Triticum aestivum); experiment: Test A postemergence, wheat; conditions: 0 to 100 scale (0 no effect, 100 complete control)
# Method in brief: as §1
# [17] = test system: giant foxtail (Setaria faberii); experiment: Test B preemergence, giant foxtail; conditions: scale 0 to 100
# From the text: as §2
# [18] = test system: catchweed bedstraw (Galium aparine); experiment: Test B preemergence, catchweed bedstraw; conditions: scale 0 to 100
# From the text: as §2
# [19] = test system: nightshade (eastern black nightshade, Solanum ptycanthum); experiment: Test B preemergence, nightshade; conditions: scale 0 to 100
# From the text: as §2
compound,measurement,setting,value
CC1(C)CC(S(=O)(=O)Cc2c(C(F)(F)F)nc3ccsn3c2=O)=NO1 [Compound 16],"Plant response rating, Wheat",[1]; 125 g ai/ha,0
same,"Plant response rating, Wheat",[1]; 500 g ai/ha,0
same,"Plant response rating, Velvetleaf",[2]; 125 g ai/ha,50
same,"Plant response rating, Velvetleaf",[2]; 500 g ai/ha,60
same,"Plant response rating, Goosegrass",[3]; 16 g ai/ha,85
same,"Plant response rating, Goosegrass",[3]; 31 g ai/ha,95
same,"Plant response rating, Goosegrass",[3]; 62 g ai/ha,100
same,"Plant response rating, Goosegrass",[3]; 125 g ai/ha,100
same,"Plant response rating, Rice",[4]; 62 g ai/ha,0
same,"Plant response rating, Rice",[4]; 250 g ai/ha,0
same,"Plant response rating, Barnyardgrass","[5]; 62 g ai/ha, scale 0 to 100",0
same,"Plant response rating, Barnyardgrass","[5]; 250 g ai/ha, scale 0 to 100 (0 no effect, 100 complete control)",0
same,"Plant response rating, Sunflower",[6]; 16 g ai/ha,0
same,"Plant response rating, Sunflower",[6]; 31 g ai/ha,0
same,"Plant response rating, Sunflower",[6]; 62 g ai/ha,0
same,"Plant response rating, Sunflower",[6]; 125 g ai/ha,0
same,"Plant response rating, Lambsquarters",[7]; 16 g ai/ha,0
same,"Plant response rating, Lambsquarters",[7]; 31 g ai/ha,0
same,"Plant response rating, Lambsquarters",[7]; 62 g ai/ha,0
same,"Plant response rating, Lambsquarters",[7]; 125 g ai/ha,98
same,"Plant response rating, Pigweed",[8],100
same,"Plant response rating, Wheat",[9]; 16 g ai/ha,0
same,"Plant response rating, Wheat",[9]; 31 g ai/ha,0
same,"Plant response rating, Wheat",[9]; 62 g ai/ha,0
same,"Plant response rating, Wheat",[9]; 125 g ai/ha,0
same,"Plant response rating, Blackgrass",[10]; 16 g ai/ha,10
same,"Plant response rating, Blackgrass",[10]; 31 g ai/ha,85
same,"Plant response rating, Blackgrass",[10]; 62 g ai/ha,90
same,"Plant response rating, Blackgrass",[10]; 125 g ai/ha,100
same,"Plant response rating, Pigweed",[11]; 31 g ai/ha,0
same,"Plant response rating, Pigweed",[11]; 62 g ai/ha,0
same,"Plant response rating, Pigweed",[11]; 125 g ai/ha,100
same,"Plant response rating, Corn",[12]; 125 g ai/ha,0
same,"Plant response rating, Corn",[12]; 500 g ai/ha,0
same,"Plant response rating, Cocklebur",[13]; 16 g ai/ha,0
same,"Plant response rating, Cocklebur",[13]; 31 g ai/ha,0
same,"Plant response rating, Cocklebur",[13]; 62 g ai/ha,0
same,"Plant response rating, Cocklebur",[13]; 125 g ai/ha,0
same,"Plant response rating, Crabgrass, Large",[14]; 125 g ai/ha,80
same,"Plant response rating, Crabgrass, Large",[14]; 500 g ai/ha,90
same,"Plant response rating, Sedge, Umbrella",[15]; 62 g ai/ha,0
same,"Plant response rating, Sedge, Umbrella",[15]; 250 g ai/ha,40
same,"Plant response rating, Wheat",[16]; 125 g ai/ha,0
same,"Plant response rating, Wheat",[16]; 500 g ai/ha,50
same,"Plant response rating, Foxtail, Giant",[17]; 16 g ai/ha,0
same,"Plant response rating, Foxtail, Giant",[17]; 31 g ai/ha,80
same,"Plant response rating, Foxtail, Giant",[17]; 62 g ai/ha,90
same,"Plant response rating, Foxtail, Giant",[17]; 125 g ai/ha,98
same,"Plant response rating, Galium",[18]; 16 g ai/ha,0
same,"Plant response rating, Galium",[18]; 31 g ai/ha,0
same,"Plant response rating, Galium",[18]; 62 g ai/ha,0
same,"Plant response rating, Galium",[18]; 125 g ai/ha,70
same,"Plant response rating, Nightshade",[19]; 16 g ai/ha,0
same,"Plant response rating, Nightshade",[19]; 31 g ai/ha,0
same,"Plant response rating, Nightshade",[19]; 62 g ai/ha,85
same,"Plant response rating, Nightshade",[19]; 125 g ai/ha,95
